This note sets out measurements from US20260159528A1, “HETEROCYCLIC COMPOUNDS AS TRIGGERING RECEPTOR EXPRESSED ON MYELOID CELLS 2 AGONISTS AND METHODS OF USE” (Vigil Neuroscience, Inc., priority 2021, published 2026).

Each structure is given as a SMILES string.

In the assay the target is T1, human TREM2 (Homo sapiens, UniProt Q9NZC2).
T1 construct: expressed in transfected cells; host or cells: HEK293T
T1 sequence (Q9NZC2 19-230): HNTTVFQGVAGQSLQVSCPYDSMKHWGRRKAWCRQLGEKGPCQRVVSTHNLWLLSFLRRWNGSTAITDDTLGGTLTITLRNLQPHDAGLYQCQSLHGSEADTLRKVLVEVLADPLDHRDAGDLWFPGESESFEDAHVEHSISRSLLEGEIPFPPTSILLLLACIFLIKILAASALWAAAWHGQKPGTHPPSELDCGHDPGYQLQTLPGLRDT
T1 sequence (O43914 22-113 partner): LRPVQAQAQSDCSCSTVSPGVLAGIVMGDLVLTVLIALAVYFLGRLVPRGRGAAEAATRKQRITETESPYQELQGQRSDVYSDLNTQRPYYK
Briefly: TREM2 agonist potency by cellular Syk phosphorylation (AlphaLisa) in HEK293T-hTREM2 cells. The conditions noted are these: Table D-2; HEK293 cells expressing human TREM2 and DAP12; pSyk AlphaLisa. Type of assay: cell-based. As to the method:
In vitro Measurement of Triggering Receptor Expressed on Myeloid Cells 2 activity using cellular phosphorylation of Spleen Tyrosine Kinase (“Syk”) Assays
Measurement of TREM2 agonist potency was done using a HEK cell line expressing human TREM2 and DAP12 (HEK293T-hTREM2 cells). Binding of small molecules to, and activation of, TREM2 increases the phosphorylation of Syk. The resultant levels of Syk phosphorylation are measured using a commercial AlphaLisa reagent kit. To perform the assay, HEK-hTREM2 cells were plated at 14,000 cells per well in a 384 well plate, in 25 µL of complete growth media and incubated at 37° C., 5% CO2 for 20-24 hours.
Prior to the assay, test compounds were diluted in the 384 well plates in assay buffer and allowed to equilibrate for 30 minutes. Growth media was removed from cell plates by inversion on blotting paper, and 25 μL of test articles in assay buffer was added to cells. Cells were incubated for 45 minutes at room temperature. After 45 minutes, assay buffer was removed and 10 μL of lysis buffer was added. Plates were shaken for 20 minutes at 350 RPM at room temperature. After complete lysis, AlphaLisa reagents were added to the lysate, and fluorescence intensity was measured using a Perkin Elmer Envision plate reader. Intensities were used to generate a standard curve, and % activation was calculated. Curve fitting was performed using Prism v9 software, log(agonist) vs response—variable slope (four parameters), and EC50s were calculated from the curve fit.
The results presented in Table D have been generated with the in vitro assay described above. This assay may be used to test any of the compounds described herein to assess and characterize a compound's ability to act as an agonist of TREM2.
On the technique in general: Alpha assays give light when donor and acceptor beads are brought close together.
The term EC50 denotes the concentration at which the effect is half-maximal. A lower EC50 goes with an effect from little substance. Consider `Fc1cc(C(F)(F)F)ccc1-c1nc([C@@H]2CCO[C@@H](c3cnn(C4CC4)c3)C2)nc2nc(N3CCC3)sc12` (single isomer, unassigned) [Compound I-248], for which the EC50 was 50 to 500 nM.
`Cc1cc([C@H]2CN(c3nc(-c4ccc(C(F)(F)F)cc4F)c4sc(N(C)C)nc4n3)C[C@@H](C)O2)ccn1` [Compound I-263, 7-[2-fluoro-4-(trifluoromethyl)phenyl]-N,N-dimethyl-5-[(2R,6S)-2-methyl-6-(2-methyl-4-pyridyl)morpholin-4-yl]thiazolo[4,5-d]pyrimidin-2-amine] registered a 50% effective concentration (EC50) of 50 to 500 nM.
In turn, `CCN(C)c1nc2nc(N3C[C@@H](C)O[C@@H](c4cnn(C5CC5)c4)C3)nc(-c3ccc(Cl)cc3F)c2s1` (single isomer, unassigned) [Compound I-119] came in with an EC50 of 500 to 3000 nM.
As for `Fc1cc(C(F)(F)F)ccc1-c1nc([C@@H]2CCO[C@@H](c3cnn(C4CC4)c3)C2)nc2nc(C3CC3)sc12` (single isomer, unassigned) [Compound I-278], the figure is 500 to 3000 nM.
`CN(C)c1nc2nc(N3CCC(F)(F)C(c4cnn(C5CC5)c4)C3)nc(-c3ccc(C(F)(F)F)cc3F)c2s1` (racemic) [Compound I-185, 5-(3-(1-cyclopropyl-1H-pyrazol-4-yl)-4,4-difluoropiperidin-1-yl)-7-(2-fluoro-4-(trifluoromethyl)phenyl)-N,N-dimethylthiazolo[4,5-d]pyrimidin-2-amine] gave an EC50 of 50 to 500 nM.
`CN(C)c1nc2nc([C@@H]3CCO[C@@H](c4ccc(=O)n(C)c4)C3)nc(-c3ccc(F)cc3F)c2s1` (racemic) [Compound I-289, 5-[(2R,4R)-4-[7-(2,4-difluorophenyl)-2-(dimethylamino)thiazolo[4,5-d]pyrimidin-5-yl]tetrahydropyran-2-yl]-1-methyl-pyridin-2-one]: the EC50 is 50 to 500 nM.
Next, `Cc1cc(C2CN(c3nc(-c4ccc(C(F)(F)F)cc4F)c4sc(N(C)C)nc4n3)CCC2(F)F)ccn1` (racemic) [Compound I-188, 5-(4,4-difluoro-3-(2-methylpyridin-4-yl)piperidin-1-yl)-7-(2-fluoro-4-(trifluoromethyl)phenyl)-N,N-dimethylthiazolo[4,5-d]pyrimidin-2-amine]: 50 to 500 nM; `Fc1cc(C(F)(F)F)ccc1-c1nc([C@H]2CCO[C@@H](c3cnn(C4CC4)c3)C2)nc2nc(N3CCC3)sc12` (single isomer, unassigned) [Compound I-249]: no more than 50 nM; `CN(C)c1nc2nc([C@H]3CCO[C@@H](c4cnn(C5CC5)c4)C3)nc(-c3ccc(F)cc3F)c2n1C` [Compound I-303, 2-((2R,4S)-2-(1-cyclopropyl-1H-pyrazol-4-yl)tetrahydro-2H-pyran-4-yl)-6-(2,4-difluorophenyl)-N,N,7-trimethyl-7H-purin-8-amine]: 50 to 500 nM.
Turning to `CNc1nc2nc(N3C[C@@H](C)O[C@@H](c4cnn(C5CC5)c4)C3)nc(-c3ccc(Cl)cc3F)c2s1` (single isomer, unassigned) [Compound I-94], the EC50 was 50 to 500 nM.
As for `CN(C)c1nc2nc(C3CCO[C@@H](c4cnn(C5CC5)c4)C3)nc(Oc3ccccc3)c2s1` (stereo partly drawn) [Compound I-210, 5-[(2R)-2-(1-cyclopropylpyrazol-4-yl)tetrahydropyran-4-yl]-N,N-dimethyl-7-phenoxy-thiazolo[4,5-d]pyrimidin-2-amine], the EC50 was 500 to 3000 nM.
Compound `C[C@@H]1CN(c2nc(-c3ccc(Cl)cc3F)c3sc(N(C)CC4CC4)nc3n2)C[C@H](c2cnn(C3CC3)c2)O1` [Compound I-109, 7-(4-chloro-2-fluoro-phenyl)-N-(cyclopropylmethyl)-N-methyl-5-[(2S,6R)-2-(1-cyclopropylpyrazol-4-yl)-6-methyl-morpholin-4-yl]thiazolo[4,5-d]pyrimidin-2-amine] showed a 50% effective concentration (EC50) of 50 to 500 nM.
The compound `Cc1nc2nc([C@@H]3CCO[C@@H](c4cnn(C5CC5)c4)C3)nc(-c3ccc(F)cc3F)c2s1` [Compound I-14, 5-[(2R,4R)-2-(1-cyclopropylpyrazol-4-yl)tetrahydropyran-4-yl]-7-(2,4-difluorophenyl)-2-methyl-thiazolo[4,5-d]pyrimidine] had an EC50 of 500 to 3000 nM.
The compound `CN(C)c1nc2nc(N3CCC(F)(F)[C@H](c4cnn(C5CC5)c4)C3)nc(-c3ccc(C(F)(F)F)cc3F)c2s1` (single isomer, unassigned) [Compound I-200] returned a concentration giving a half-maximal response (EC50) of 50 to 500 nM.
`Cc1cc([C@H]2C[C@@H](c3nc(-c4ccc(F)cc4F)c4sc(N(C)C)nc4n3)CCO2)ccn1` [Compound I-268, 7-(2,4-difluorophenyl)-N,N-dimethyl-5-[(2R,4S)-2-(2-methyl-4-pyridyl)tetrahydropyran-4-yl]thiazolo[4,5-d]pyrimidin-2-amine]: the EC50 lay in the range of 50 to 500 nM.
Next, `COCn1cc([C@H]2CN(c3nc(-c4ccc(C(F)(F)F)cc4F)c4sc(N(C)C)nc4n3)C[C@@H](C)O2)cn1` [Compound I-149, 7-[2-fluoro-4-(trifluoromethyl)phenyl]-5-[(2S,6R)-2-[1-(methoxymethyl)pyrazol-4-yl]-6-methyl-morpholin-4-yl]-N,N-dimethyl-thiazolo[4,5-d]pyrimidin-2-amine]: 50 to 500 nM; `CO[C@@H]1CCN(c2nc3nc(N4C[C@@H](C)O[C@@H](c5cnn(C6CC6)c5)C4)nc(-c4ccc(F)cc4F)c3s2)C1` [Compound I-221, (2S,6R)-2-(1-cyclopropyl-1H-pyrazol-4-yl)-4-(7-(2,4-difluorophenyl)-2-((R)-3-methoxypyrrolidin-1-yl)thiazolo[4,5-d]pyrimidin-5-yl)-6-methylmorpholine]: no more than 50 nM.
Regarding `CC(C)n1ncc2c(-c3ccc(F)cc3F)nc(N3C[C@@H](C)O[C@@H](c4cnn(C5CC5)c4)C3)nc21` [Compound I-139], the EC50 is 500 to 3000 nM.
`CO[C@@H]1CCN(c2nc3nc([C@H]4CCO[C@@H](c5cnn(C6CC6)c5)C4)nc(-c4ccc(C(F)(F)F)cc4F)c3s2)C1` [Compound I-164, 5-((2R,4S)-2-(1-cyclopropyl-1H-pyrazol-4-yl)tetrahydro-2H-pyran-4-yl)-7-(2-fluoro-4-(trifluoromethyl)phenyl)-2-((R)-3-methoxypyrrolidin-1-yl)thiazolo[4,5-d]pyrimidine] gave an EC50 of 50 to 500 nM.
As for `C[C@@H]1CN(c2nc(-c3ccc(F)cc3F)c3c(n2)nc(N2CCC2)n3C)C[C@H](c2cnn(C3CC3)c2)O1` [Compound I-191, (2S,6R)-4-(8-(azetidin-1-yl)-6-(2,4-difluorophenyl)-7-methyl-7H-purin-2-yl)-2-(1-cyclopropyl-1H-pyrazol-4-yl)-6-methylmorpholine], the figure is 50 to 500 nM.
With `CS(=O)(=O)c1nc2nc([C@H]3CCO[C@@H](c4cnn(C5CC5)c4)C3)nc(-c3ccc(C(F)(F)F)cc3N3CCC3)c2s1` [Compound I-253, 7-[2-(azetidin-1-yl)-4-(trifluoromethyl)phenyl]-5-[(2R,4S)-2-(1-cyclopropylpyrazol-4-yl)tetrahydropyran-4-yl]-2-methylsulfonyl-thiazolo[4,5-d]pyrimidine], the EC50 lay within 50 to 500 nM.
`Cc1cc([C@H]2CN(c3nc(-c4ccc(C(F)(F)F)cc4F)c4sc(N(C)C)nc4n3)CCC2(F)F)ccn1` (single isomer, unassigned) [Compound I-202] yielded an EC50 of 50 to 500 nM.
For the compound `CCn1/c(=N\C)sc2c(-c3ccc(Cl)cc3F)nc(N3C[C@@H](C)O[C@@H](c4cnn(C5CC5)c4)C3)nc21` [Compound I-154, (E)-7-(4-chloro-2-fluoro-phenyl)-3-ethyl-N-methyl-5-[(2S,6R)-2-(1-cyclopropylpyrazol-4-yl)-6-methyl-morpholin-4-yl]thiazolo[4,5-d]pyrimidin-2-imine], the EC50 is 500 to 3000 nM.
Regarding `CN(C)c1nc2nc(C3CCOC(c4ccc(=O)n(C)c4)C3)nc(-c3ccc(F)cc3F)c2s1` (racemic) [Compound I-288, 5-[4-[7-(2,4-difluorophenyl)-2-(dimethylamino)thiazolo[4,5-d]pyrimidin-5-yl]tetrahydropyran-2-yl]-1-methyl-pyridin-2-one], the EC50 was no more than 50 nM.
In turn, `CN(C)c1nc2nc([C@@H]3CCO[C@@H](c4cnn(C5CC5)c4)C3)nc(-c3ccc(C(F)(F)F)cc3F)c2s1` (single isomer, unassigned) [Compound I-135] showed a concentration giving a half-maximal response (EC50) of 500 to 3000 nM.
Compound `Cc1cc([C@H]2C[C@H](c3nc(-c4ccc(F)cc4F)c4sc(N(C)C)nc4n3)CCO2)ccn1` [Compound I-269, 7-(2,4-difluorophenyl)-N,N-dimethyl-5-[(2R,4R)-2-(2-methyl-4-pyridyl)tetrahydropyran-4-yl]thiazolo[4,5-d]pyrimidin-2-amine] had an EC50 of 50 to 500 nM.
As for `CN(c1nc2nc([C@H]3CCO[C@@H](c4cnn(C5CC5)c4)C3)nc(-c3ccc(F)cc3F)c2n1C)C1CC1` [Compound I-298], the figure is 50 to 500 nM.
The compound `C[C@@H]1CN(c2nc(-c3cc(F)c(F)cc3F)c3sc(N(C)C)nc3n2)C[C@H](c2cnn(C3CC3)c2)O1` [Compound I-273, 5-[(2S,6R)-2-(1-cyclopropylpyrazol-4-yl)-6-methyl-morpholin-4-yl]-N,N-dimethyl-7-(2,4,5-trifluorophenyl)thiazolo[4,5-d]pyrimidin-2-amine] had an EC50 of no more than 50 nM.
